“And” between values parts separate entries of the source, which are not always exact repeats. Equal entries are not always repeated. Where two headings read alike, the source gives them in different places.
Experiments:
HBD2 = experiment: cells; assay type: cell-based, human; conditions: for fold induction at 10000 µM: Homo sapiens, Keratinocyte
Procedure: (§1) Primary human epidermal keratinocytes were prepared from neonatal foreskin as described previously (Grether-Beck et al, 1996, 2000, 2003, 2005, 2008) and maintained in culture under serum free conditions using a defined keratinocyte growth medium Keratinocyte SFM (Invitrogen, Heidelberg, Germany) supplemented with bovine pituitary extract (Invitrogen, Heidelberg, Germany) and recombinant epidermal growth factor (Invitrogen, Heidelberg, Germany). Cells were propagated up to passage 2 or 3 at 37°C and 5 % CO2 (Grether-Beck et al, 1996, 2000, 2003, 2005, 2008). For induction of differentiation NHEKs were seeded in 6well plates and grown up to confluence.
(§2) For assessment of gene expression total RNA was extracted from frozen biopsies (Ø 4 mm) and gene expression measured by semiquantitative RT-PCR. For isolation of RNA from frozen skin biopsies, 600 µl lysis buffer from PeqGold Total RNA Kit (PeqLab, Erlangen, Germany) were added and the samples were disrupted in a MixerMill MM300 (Retsch, Haan, Germany) three times for 3 min with 30 Hz. 50 ng total RNA were used for cDNA synthesis. PCR reactions were performed in an Opticon 1 (MJ Research, Waltham, MA, USA) using Sybr QPCR Supermix w. Rox (Invitrogen, Karlsruhe, Germany). PCR conditions were as follows: activation of hot start taq polymerase 94° C 15 minutes; denaturation 95° C, 20 seconds; annealing, 55° C, 20 seconds; extension, 72° C 30 seconds. Each sample was subjected to PCR in double using the appropriate primer pairs for 45-50 cycles. For comparison of relative expression in real time PCR control cells and treated cells the 2 (-della delta C(T)) method was used (Livak KJ, and Schmittgen TD. Analysis of relative gene expression data using real time quantitative PCR and the 2 (-delta delta C(T)) method. Methods 2001: 25: 402 - 408). mRNA expression of the genes of interest was shown as fold induction as compared to untreated skin samples of the same volunteer. Table 1: Primer pairs for real time PCR
(§3) For determination of relative gene expression in real time PCT the 2(-delta delta C(T))-method was used as described in Livak and Schmittgen (2001) "Analysis of relative gene expression data using real time quantitative PCR and the 2 (-delta delta C(T))-method" Methods 25: 401-408. For statistical analysis, the experimental data were analyzed using the Wilcoxon signed-rank test.
(§4) HNKs were stimulated with 10mM urea for the indicated time points (3h, 6h, 12h, 24h) and processed for RNA analysis (1). Data are the result of a set of three samples for the control and two samples in parallel for the urea stimulated ones. Table 2 indicates the relative gene expression levels after stimulation with urea as compared to untreated contol cells. […] Table 3 indicates the data depicted in Figure 2. [formula] Table 2: Expression of antimicrobial peptides in human keratinocytes after stimulation with urea at different time points after induction.

HBD-2 = experiment: cells; assay type: cell-based, human; conditions: for fold induction at 1000 µM / fold induction at 10000 µM / fold induction at 20000 µM / fold induction at 50000 µM / fold induction at 100000 µM / fold induction at 5000 µM: Homo sapiens, Keratinocyte; for Expression of HBD-2: keratinocytes
Procedure: as §1, §2, §3
as §4, with “Data” for “HNKs were stimulated with 10mM urea for the indicated time points (3h, 6h, 12h, 24h) and processed for RNA analysis (1). Data”

LL-37 [1] = experiment: LL-37 expression in confluent human keratinocytes, time course and urea concentration series (real time PCR); assay type: cell-based; conditions: for fold induction at 1000 µM / fold induction at 5000 µM / fold induction at 20000 µM / fold induction at 50000 µM / fold induction at 100000 µM / fold induction at 10000 µM: Homo sapiens, Keratinocyte; for fold induction at 20000 µM: 20mM urea
Procedure: as §1, §2
as §3, with “test. […]” for “test.”

LL-37 [2] = experiment: LL-37 gene expression in subconfluent primary human keratinocytes after urea stimulation (real time PCR); assay type: cell-based; conditions: 10mM urea, compared to untreated control cells; for relative gene expression level LL-37: 10000 µM; for fold induction at 10000 µM: Homo sapiens, Keratinocyte, read-out: relative gene expression level LL-37
Procedure: as §1, §2, §3, §4

SMILES: NC(N)=O [urea]
- fold induction at 10000 µM (HBD2; 3 h, read-out: relative gene expression level HBD2, 10mM urea, 3h, compared to untreated control cells): 1.8
- fold induction at 10000 µM (HBD2; 6 h, read-out: relative gene expression level HBD2, 10mM urea, 6h, compared to untreated control cells): 1.1
- fold induction at 10000 µM (HBD2; 12 h, read-out: relative gene expression level HBD2, 10mM urea, 12h, compared to untreated control cells): 1.5
- fold induction at 10000 µM (HBD2; 24 h, read-out: relative gene expression level HBD2, 10mM urea, 24h, compared to untreated control cells): 1.6
- relative gene expression level HBD2 (HBD2; primary keratinocytes, 3 h, 10000 µM): 1.7000
- fold induction at 1000 µM (HBD-2; 24 h, read-out: Expression of HBD-2, 24h, 1mM urea): 1.2
- fold induction at 10000 µM (HBD-2; 24 h, read-out: Expression of HBD-2, 24h, 10mM urea): 1.5
- fold induction at 20000 µM (HBD-2; 24 h, read-out: Expression of HBD-2, 24h, 20mM urea): 3.9
- fold induction at 50000 µM (HBD-2; 24 h, read-out: Expression of HBD-2, 24h, 50mM urea): 2.3
- fold induction at 100000 µM (HBD-2; 24 h, read-out: Expression of HBD-2, 24h, 100mM urea): 1.3
- fold induction at 1000 µM (HBD-2; 48 h, read-out: Expression of HBD-2, 48h, 1mM urea): 0.9
- fold induction at 5000 µM (HBD-2; 48 h, read-out: Expression of HBD-2, 48h, 5mM urea): 1.7
- fold induction at 10000 µM (HBD-2; 48 h, read-out: Expression of HBD-2, 48h, 10mM urea): 3.3
- fold induction at 20000 µM (HBD-2; 48 h, read-out: Expression of HBD-2, 48h, 20mM urea): 19.1
- fold induction at 50000 µM (HBD-2; 48 h, read-out: Expression of HBD-2, 48h, 50mM urea): 6.3
- fold induction at 100000 µM (HBD-2; 48 h, read-out: Expression of HBD-2, 48h, 100mM urea): 2.3
- fold induction at 1000 µM (HBD-2; 72 h, read-out: Expression of HBD-2, 72h, 1mM urea): 2.2
- fold induction at 5000 µM (HBD-2; 72 h, read-out: Expression of HBD-2, 72h, 5mM urea): 5.4
- fold induction at 10000 µM (HBD-2; 72 h, read-out: Expression of HBD-2, 72h, 10mM urea): 6.5
- fold induction at 20000 µM (HBD-2; 72 h, read-out: Expression of HBD-2, 72h, 20mM urea): 13.3
- fold induction at 50000 µM (HBD-2; 72 h, read-out: Expression of HBD-2, 72h, 50mM urea): 10.1
- fold induction at 100000 µM (HBD-2; 72 h, read-out: Expression of HBD-2, 72h, 100mM urea): 2.9
- fold induction at 1000 µM (HBD-2; 96 h, read-out: Expression of HBD-2, 96h, 1mM urea): 1.9
- fold induction at 5000 µM (HBD-2; 96 h, read-out: Expression of HBD-2, 96h, 5mM urea): 4.1
- fold induction at 10000 µM (HBD-2; 96 h, read-out: Expression of HBD-2, 96h, 10mM urea): 6.1
- fold induction at 20000 µM (HBD-2; 96 h, read-out: Expression of HBD-2, 96h, 20mM urea): 15
- fold induction at 50000 µM (HBD-2; 96 h, read-out: Expression of HBD-2, 96h, 50mM urea): 12.6
- fold induction at 100000 µM (HBD-2; 96 h, read-out: Expression of HBD-2, 96h, 100mM urea): 10.2
- Expression of HBD-2 (HBD-2; 24 h, 1000 µM): 1.1000
- Expression of HBD-2 (HBD-2; 24 h, 10000 µM): 1.6000
- Expression of HBD-2 (HBD-2; 48 h, 1000 µM): 0.7000
- Expression of HBD-2 (HBD-2; 48 h, 5000 µM): 1.6000
- Expression of HBD-2 (HBD-2; 48 h, 50000 µM): 6.2000
- Expression of HBD-2 (HBD-2; 48 h, 100000 µM): 2.6000
- Expression of HBD-2 (HBD-2; 72 h, 1000 µM): 2.6000
- Expression of HBD-2 (HBD-2; 72 h, 10000 µM): 7.0000
- Expression of HBD-2 (HBD-2; 72 h, 20000 µM): 13.2000
- Expression of HBD-2 (HBD-2; 96 h, 1000 µM): 1.8000
- Expression of HBD-2 (HBD-2; 96 h, 5000 µM): 4.2000
- Expression of HBD-2 (HBD-2; 96 h, 100000 µM): 10.9000
- Expression of LL-37 (LL-37 [1]; 24h, 1mM urea, 1440 min, 1000 µM): 1.9000
- Expression of LL-37 (LL-37 [1]; 24h, 5mM urea, 1440 min, 5000 µM): 1.7000
- Expression of LL-37 (LL-37 [1]; 24h, 10mM urea, 1440 min, 10000 µM): 1.7000
- Expression of LL-37 (LL-37 [1]; 48h, 1mM urea, 2880 min, 1000 µM): 3.0000
- Expression of LL-37 (LL-37 [1]; 48h, 5mM urea, 2880 min, 5000 µM): 2.2000 and 1.9000
- Expression of LL-37 (LL-37 [1]; 72h, 1mM urea, 4320 min, 1000 µM): 10.3000 and 11.4000
- Expression of LL-37 (LL-37 [1]; 72h, 5mM urea, 4320 min, 5000 µM): 7.1000
- Expression of LL-37 (LL-37 [1]; 72h, 10mM urea, 4320 min, 10000 µM): 1.7000 and 1.7300
- Expression of LL-37 (LL-37 [1]; 72h, 50mM urea, 4320 min, 50000 µM): 0.9000
- Expression of LL-37 (LL-37 [1]; 96h, 1mM urea, 5760 min, 1000 µM): 4.7000 and 5.5000
- Expression of LL-37 (LL-37 [1]; 96h, 5mM urea, 5760 min, 5000 µM): 4.2000
- Expression of LL-37 (LL-37 [1]; 96h, 10mM urea, 5760 min, 10000 µM): 3.4000
- Expression of LL-37 (LL-37 [1]; 96h, 100mM urea, 5760 min, 100000 µM): 1.0000
- fold induction at 1000 µM (LL-37 [1]; 24 h, 1mM urea): 1.8
- fold induction at 5000 µM (LL-37 [1]; 24 h, 5mM urea): 1.4
- fold induction at 20000 µM (LL-37 [1]; 24 h): 1.2
- fold induction at 50000 µM (LL-37 [1]; 24 h, 50mM urea): 1.3
- fold induction at 100000 µM (LL-37 [1]; 24 h, 100mM urea): 1.2
- fold induction at 1000 µM (LL-37 [1]; 48 h, 1mM urea): 3.2
- fold induction at 5000 µM (LL-37 [1]; 48 h, 5mM urea): 2.1
- fold induction at 10000 µM (LL-37 [1]; 48 h, 10mM urea): 1.5
- fold induction at 20000 µM (LL-37 [1]; 48 h): 1.2
- fold induction at 50000 µM (LL-37 [1]; 48 h, 50mM urea): 1.2
- fold induction at 100000 µM (LL-37 [1]; 48 h, 100mM urea): 0.8
- fold induction at 1000 µM (LL-37 [1]; 72 h, 1mM urea): 11.2
- fold induction at 5000 µM (LL-37 [1]; 72 h, 5mM urea): 7.2
- fold induction at 10000 µM (LL-37 [1]; 72 h, 10mM urea): 1.8
- fold induction at 20000 µM (LL-37 [1]; 72 h): 1.6
- fold induction at 50000 µM (LL-37 [1]; 72 h, 50mM urea): 0.8
- fold induction at 100000 µM (LL-37 [1]; 72 h, 100mM urea): 0.8
- fold induction at 1000 µM (LL-37 [1]; 96 h, 1mM urea): 5
- fold induction at 5000 µM (LL-37 [1]; 96 h, 5mM urea): 3.9
- fold induction at 10000 µM (LL-37 [1]; 96 h, 10mM urea): 3.2
- fold induction at 20000 µM (LL-37 [1]; 96 h): 1.6
- fold induction at 50000 µM (LL-37 [1]; 96 h, 50mM urea): 1.3
- fold induction at 100000 µM (LL-37 [1]; 96 h, 100mM urea): 1.1
- relative gene expression level LL-37 (LL-37 [2]; 3h, 180 min): 1.9000
- relative gene expression level LL-37 (LL-37 [2]; 24h, 1440 min): 1.9000
- fold induction at 10000 µM (LL-37 [2]; 6 h, 6h): 2.8
- fold induction at 10000 µM (LL-37 [2]; 12 h, 12h): 2.3
- fold induction at 10000 µM (LL-37 [2]; 24 h, 24h): 2.1

Reference: patent EP2241312A1, “Use of compositions comprising urea for treating microbial infections” (ISDIN S.A., priority 2009, dated 2010)
